# Columns and labels:
# [1] = biological target: T1, guanylyl cyclase type B (GC-B) (Rattus norvegicus, UniProt P16067); test: CNP-induced cyclic GMP accumulation in RFL-6 fibroblast cells; details: RFL-6 cells, 1 μM CNP, 50 μM compound
# T1 sequence (P16067 17-1047): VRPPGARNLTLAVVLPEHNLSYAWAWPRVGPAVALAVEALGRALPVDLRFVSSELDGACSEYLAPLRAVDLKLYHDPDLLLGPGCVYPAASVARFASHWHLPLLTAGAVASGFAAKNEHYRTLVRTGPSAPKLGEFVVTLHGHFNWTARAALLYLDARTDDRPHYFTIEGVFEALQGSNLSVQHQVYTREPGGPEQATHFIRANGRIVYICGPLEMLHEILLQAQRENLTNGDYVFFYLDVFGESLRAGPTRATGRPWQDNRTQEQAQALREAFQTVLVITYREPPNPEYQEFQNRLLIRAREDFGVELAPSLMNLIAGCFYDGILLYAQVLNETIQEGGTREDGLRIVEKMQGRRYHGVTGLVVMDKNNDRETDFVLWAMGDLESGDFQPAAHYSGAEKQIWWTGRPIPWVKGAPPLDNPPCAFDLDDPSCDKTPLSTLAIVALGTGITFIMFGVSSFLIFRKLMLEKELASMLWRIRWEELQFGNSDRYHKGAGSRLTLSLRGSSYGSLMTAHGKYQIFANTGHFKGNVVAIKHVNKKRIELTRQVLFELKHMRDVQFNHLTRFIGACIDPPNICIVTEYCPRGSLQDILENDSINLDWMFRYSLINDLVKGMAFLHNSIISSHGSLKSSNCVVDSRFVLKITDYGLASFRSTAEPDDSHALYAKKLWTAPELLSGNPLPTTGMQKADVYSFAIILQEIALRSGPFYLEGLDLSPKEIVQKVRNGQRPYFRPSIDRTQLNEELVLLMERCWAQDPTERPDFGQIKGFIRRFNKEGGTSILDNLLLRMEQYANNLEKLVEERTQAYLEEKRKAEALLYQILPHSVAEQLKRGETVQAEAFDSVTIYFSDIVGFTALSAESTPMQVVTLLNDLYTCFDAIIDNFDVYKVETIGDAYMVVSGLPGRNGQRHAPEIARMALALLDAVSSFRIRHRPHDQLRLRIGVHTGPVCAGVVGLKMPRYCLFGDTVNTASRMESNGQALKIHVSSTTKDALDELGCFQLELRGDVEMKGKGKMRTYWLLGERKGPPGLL
# [2] = biological target: anthrax edema toxin (protective antigen and edema factor) (Bacillus anthracis, UniProt P40136); type: cell-based
# [3] = biological target: pertussis adenylyl cyclase toxin (Bordetella pertussis, UniProt P0DKX7); test: Cyclic AMP accumulation in T84 cells infected with pertussis adenylyl cyclase toxin; type: cell-based; details: 50 μM compound
# Description: The assay was performed in T84 cells by the methods described in Example 2 and Ahuja, N.; Kumar, P.; Bhatnagar, R., The adenylate cyclase toxins. Crit Rev Microbiol 2004, 30, (3), 187-96, but the amount of cyclic AMP accumulated was assayed with a commercially available kit from Cayman Chemical Co.
# Cells were treated with pertussis adenylyl cyclase toxin at 1 μg/ml in Dulbecco's minimal essential medium for 60 min in the presence of vehicle DMSO (0.1%) or 50 μM compound IIb for 60 min and then medium was aspirated and replaced with DPBS containing 1 mM IBMX and DMSO or compound IIb, respectively, for the vehicle and compound IIb-treated samples. After 10 min incubation, the amount of cyclic AMP was measured. […] N=3.
# [4] = biological target: guanylyl cyclase type C (GC-C) (Homo sapiens, UniProt P25092); test: Guanylin-induced activation of GC-C in T84 cells (cyclic GMP accumulation)
# [5] = biological target: T2, membrane guanylyl cyclase (guanylyl cyclase type A, GC-A) (Homo sapiens, UniProt P16066); test: ANP-induced cyclic GMP accumulation in BE-2(C) neuroblastoma cells
# T2 sequence (P16066 33-1061): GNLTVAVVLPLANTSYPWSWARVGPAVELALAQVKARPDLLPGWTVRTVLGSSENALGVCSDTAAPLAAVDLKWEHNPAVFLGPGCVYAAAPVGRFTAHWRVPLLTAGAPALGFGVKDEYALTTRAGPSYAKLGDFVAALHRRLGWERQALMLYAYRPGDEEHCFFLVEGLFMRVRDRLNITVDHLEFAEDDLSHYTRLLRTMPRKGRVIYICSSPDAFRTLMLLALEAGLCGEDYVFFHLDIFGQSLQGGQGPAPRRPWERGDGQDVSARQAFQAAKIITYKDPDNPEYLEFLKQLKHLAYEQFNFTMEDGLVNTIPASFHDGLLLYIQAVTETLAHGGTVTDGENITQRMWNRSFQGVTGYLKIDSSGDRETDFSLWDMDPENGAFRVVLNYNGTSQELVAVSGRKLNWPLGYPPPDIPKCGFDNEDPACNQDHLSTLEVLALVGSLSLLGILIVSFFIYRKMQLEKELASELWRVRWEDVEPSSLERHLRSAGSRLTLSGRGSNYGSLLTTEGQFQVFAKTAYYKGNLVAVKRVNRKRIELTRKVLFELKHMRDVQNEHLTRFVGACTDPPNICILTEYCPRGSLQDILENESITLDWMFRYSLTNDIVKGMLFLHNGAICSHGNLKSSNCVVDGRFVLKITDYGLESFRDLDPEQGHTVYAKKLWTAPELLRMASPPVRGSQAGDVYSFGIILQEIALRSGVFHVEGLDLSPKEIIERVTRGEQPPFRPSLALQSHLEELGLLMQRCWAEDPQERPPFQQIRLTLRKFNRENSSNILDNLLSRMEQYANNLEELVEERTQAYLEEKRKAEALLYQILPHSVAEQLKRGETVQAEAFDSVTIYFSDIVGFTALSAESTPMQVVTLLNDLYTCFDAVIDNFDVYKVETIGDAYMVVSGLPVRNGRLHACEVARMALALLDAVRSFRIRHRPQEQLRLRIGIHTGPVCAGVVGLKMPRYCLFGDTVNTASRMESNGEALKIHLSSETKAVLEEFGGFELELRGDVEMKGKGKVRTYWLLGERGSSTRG
# Sequence of guanylyl cyclase type C (GC-C) (P25092 24-1073): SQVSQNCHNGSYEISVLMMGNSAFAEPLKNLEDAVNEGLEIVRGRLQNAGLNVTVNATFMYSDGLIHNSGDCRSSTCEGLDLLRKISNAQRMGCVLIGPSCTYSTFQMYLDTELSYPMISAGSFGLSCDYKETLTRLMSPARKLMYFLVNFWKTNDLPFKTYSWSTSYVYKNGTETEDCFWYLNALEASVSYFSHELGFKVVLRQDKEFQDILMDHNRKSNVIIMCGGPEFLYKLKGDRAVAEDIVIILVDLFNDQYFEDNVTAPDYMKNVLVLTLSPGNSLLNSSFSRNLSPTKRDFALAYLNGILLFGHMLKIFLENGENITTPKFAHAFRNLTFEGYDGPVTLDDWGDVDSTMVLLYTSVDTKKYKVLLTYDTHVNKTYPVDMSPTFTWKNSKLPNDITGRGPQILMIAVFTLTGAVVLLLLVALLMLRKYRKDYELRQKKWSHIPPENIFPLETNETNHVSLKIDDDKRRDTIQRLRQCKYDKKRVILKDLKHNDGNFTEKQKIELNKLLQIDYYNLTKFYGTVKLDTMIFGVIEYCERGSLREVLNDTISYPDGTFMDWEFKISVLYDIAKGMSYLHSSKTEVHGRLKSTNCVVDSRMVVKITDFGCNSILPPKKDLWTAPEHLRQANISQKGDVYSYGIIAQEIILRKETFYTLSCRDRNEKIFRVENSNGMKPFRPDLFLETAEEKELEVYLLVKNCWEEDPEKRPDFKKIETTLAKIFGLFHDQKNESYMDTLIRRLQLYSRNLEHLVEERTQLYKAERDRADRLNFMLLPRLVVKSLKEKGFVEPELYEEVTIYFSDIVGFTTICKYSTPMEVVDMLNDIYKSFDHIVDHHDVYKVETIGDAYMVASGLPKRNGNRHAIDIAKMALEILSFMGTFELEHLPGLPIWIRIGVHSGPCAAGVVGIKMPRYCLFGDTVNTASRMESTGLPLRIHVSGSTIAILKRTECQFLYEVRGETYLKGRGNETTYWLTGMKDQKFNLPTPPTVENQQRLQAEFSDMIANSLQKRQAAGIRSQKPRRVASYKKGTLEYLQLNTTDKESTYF
# Sequence of anthrax edema toxin (protective antigen and edema factor) (P40136 whole entry, looked up): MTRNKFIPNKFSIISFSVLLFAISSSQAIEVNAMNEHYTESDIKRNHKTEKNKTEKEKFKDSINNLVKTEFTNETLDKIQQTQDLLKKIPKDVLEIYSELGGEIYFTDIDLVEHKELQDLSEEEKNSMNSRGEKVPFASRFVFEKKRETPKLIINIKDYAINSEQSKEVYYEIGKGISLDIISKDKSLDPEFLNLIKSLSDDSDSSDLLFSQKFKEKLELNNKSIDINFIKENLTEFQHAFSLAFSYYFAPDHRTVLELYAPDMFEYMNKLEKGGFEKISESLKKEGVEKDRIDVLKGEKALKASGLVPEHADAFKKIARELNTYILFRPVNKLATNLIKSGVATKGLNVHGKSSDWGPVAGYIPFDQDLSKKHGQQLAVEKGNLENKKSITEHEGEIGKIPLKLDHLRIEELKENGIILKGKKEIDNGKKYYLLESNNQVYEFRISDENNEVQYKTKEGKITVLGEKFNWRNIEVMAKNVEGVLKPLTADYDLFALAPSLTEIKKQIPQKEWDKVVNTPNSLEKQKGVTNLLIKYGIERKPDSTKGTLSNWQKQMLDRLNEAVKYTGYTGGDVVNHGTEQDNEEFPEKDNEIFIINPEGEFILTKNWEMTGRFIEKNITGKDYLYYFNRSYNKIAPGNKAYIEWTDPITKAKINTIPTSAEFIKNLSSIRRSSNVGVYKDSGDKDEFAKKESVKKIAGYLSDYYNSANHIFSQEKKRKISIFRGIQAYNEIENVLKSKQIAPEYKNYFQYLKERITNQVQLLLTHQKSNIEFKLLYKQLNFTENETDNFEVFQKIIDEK
# Sequence of pertussis adenylyl cyclase toxin (P0DKX7 whole entry, looked up): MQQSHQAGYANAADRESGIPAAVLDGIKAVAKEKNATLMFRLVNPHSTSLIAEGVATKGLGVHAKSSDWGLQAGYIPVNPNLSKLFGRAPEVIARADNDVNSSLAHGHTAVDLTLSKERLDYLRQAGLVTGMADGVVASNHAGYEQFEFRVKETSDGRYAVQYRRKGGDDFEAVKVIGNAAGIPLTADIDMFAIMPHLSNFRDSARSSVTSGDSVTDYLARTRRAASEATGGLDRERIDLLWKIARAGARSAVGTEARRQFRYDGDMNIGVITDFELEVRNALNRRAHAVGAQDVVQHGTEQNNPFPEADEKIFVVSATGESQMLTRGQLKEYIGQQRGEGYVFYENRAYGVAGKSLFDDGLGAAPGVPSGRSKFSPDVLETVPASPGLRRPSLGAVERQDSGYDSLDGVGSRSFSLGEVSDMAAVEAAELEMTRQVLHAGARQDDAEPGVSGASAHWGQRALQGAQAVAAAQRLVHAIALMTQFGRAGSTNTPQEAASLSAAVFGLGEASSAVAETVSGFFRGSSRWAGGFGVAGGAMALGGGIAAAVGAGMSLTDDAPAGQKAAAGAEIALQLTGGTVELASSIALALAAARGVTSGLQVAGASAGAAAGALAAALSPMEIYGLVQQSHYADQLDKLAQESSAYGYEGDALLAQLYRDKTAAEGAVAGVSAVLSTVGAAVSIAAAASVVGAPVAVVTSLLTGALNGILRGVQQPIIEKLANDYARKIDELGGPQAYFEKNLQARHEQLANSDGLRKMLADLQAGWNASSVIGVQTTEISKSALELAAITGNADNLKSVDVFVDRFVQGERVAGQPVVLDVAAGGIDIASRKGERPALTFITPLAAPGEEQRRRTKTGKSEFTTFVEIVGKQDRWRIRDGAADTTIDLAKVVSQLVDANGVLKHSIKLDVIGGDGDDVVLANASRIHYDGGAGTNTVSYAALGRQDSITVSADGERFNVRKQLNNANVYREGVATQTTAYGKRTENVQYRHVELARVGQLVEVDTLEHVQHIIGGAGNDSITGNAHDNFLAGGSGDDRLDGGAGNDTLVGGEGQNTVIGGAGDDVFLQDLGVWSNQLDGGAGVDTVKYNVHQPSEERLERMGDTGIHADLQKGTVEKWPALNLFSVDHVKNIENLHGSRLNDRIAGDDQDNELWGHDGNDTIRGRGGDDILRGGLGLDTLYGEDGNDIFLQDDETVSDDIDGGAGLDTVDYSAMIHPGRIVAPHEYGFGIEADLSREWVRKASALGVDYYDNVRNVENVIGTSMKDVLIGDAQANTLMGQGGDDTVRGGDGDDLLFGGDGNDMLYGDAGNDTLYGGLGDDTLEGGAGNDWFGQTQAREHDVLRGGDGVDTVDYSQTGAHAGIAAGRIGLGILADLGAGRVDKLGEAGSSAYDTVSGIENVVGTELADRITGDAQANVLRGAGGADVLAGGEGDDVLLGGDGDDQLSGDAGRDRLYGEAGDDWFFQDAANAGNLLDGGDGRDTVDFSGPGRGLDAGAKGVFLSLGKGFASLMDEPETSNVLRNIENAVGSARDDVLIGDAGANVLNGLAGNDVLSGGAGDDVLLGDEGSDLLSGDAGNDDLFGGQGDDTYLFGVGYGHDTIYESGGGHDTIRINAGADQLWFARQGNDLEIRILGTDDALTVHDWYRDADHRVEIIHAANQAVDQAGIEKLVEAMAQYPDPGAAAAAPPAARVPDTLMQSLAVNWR
compound,measurement,setting,value
Cn1c2c(c(=O)n(C)c1=O)C(c1cccc(Br)c1)C1=C(N2)c2ccccc2C1=O (stereo not drawn) [compound IIb],inhibition of cyclic GMP accumulation (FIG. 6),[1],inhibition
same,cyclic AMP accumulation,[2],62.1±6.3 pmol/mg protein
same,decrease of cyclic AMP accumulation,[2],55.2%
same,cyclic AMP accumulation,"[3]; toxin 1 μg/ml 60 min, vehicle 9.97±0.72",4.06±0.44 nmol/mg protein
same,decrease of cyclic AMP accumulation,[3]; toxin 1 μg/ml,59.2%
same,IC50,[4],7.2 µM
same,inhibition at 50 µM,"[4]; T84, read-out: inhibition of guanylin-induced cyclic GMP",58.9%
same,level of cyclic GMP,"[4]; T84 cells, 500 nM guanylin, 50 μM compound, vehicle 124±13",51±6 pmol/mg protein
same,IC50,[5],8.4 µM

# From patent publication US20100035867A1 (priority 2006, published 2010)
